Assay results taken from US10323022B2, “Pyrrolidinyl urea, pyrrolidinyl thiourea and pyrrolidinyl guanidine compounds as TrkA kinase inhibitors” (Array BioPharma Inc., priority 2011, dated 2019).
pIC50: −log10 of the molar value. Structures can show the parent of a compound that is named as a salt.

Biological target: TrkA (Homo sapiens (Human), UniProt P04629)
Assay: TrkA Omnia Assay
Format: biochemical
Conditions: averaged IC50; 20 nM enzyme, 500 μM ATP, 10 μM peptide substrate
Procedure, shortened: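 Continuous fluorescent kinase read-out (ex 360 nm, em 485 nm) over 70 min, with initial rates fitted to 4- or 5-parameter logistic curves for IC50. Final conditions: 500 μM ATP, 10 μM Omnia Tyr Peptide #4, 20 nM TrkA, MOPS pH 7.5 buffer with MgCl2 and Triton X-100; enzyme and compound preincubated 10 min at ambient temperature.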

TrkA, sequence (P04629 33-796): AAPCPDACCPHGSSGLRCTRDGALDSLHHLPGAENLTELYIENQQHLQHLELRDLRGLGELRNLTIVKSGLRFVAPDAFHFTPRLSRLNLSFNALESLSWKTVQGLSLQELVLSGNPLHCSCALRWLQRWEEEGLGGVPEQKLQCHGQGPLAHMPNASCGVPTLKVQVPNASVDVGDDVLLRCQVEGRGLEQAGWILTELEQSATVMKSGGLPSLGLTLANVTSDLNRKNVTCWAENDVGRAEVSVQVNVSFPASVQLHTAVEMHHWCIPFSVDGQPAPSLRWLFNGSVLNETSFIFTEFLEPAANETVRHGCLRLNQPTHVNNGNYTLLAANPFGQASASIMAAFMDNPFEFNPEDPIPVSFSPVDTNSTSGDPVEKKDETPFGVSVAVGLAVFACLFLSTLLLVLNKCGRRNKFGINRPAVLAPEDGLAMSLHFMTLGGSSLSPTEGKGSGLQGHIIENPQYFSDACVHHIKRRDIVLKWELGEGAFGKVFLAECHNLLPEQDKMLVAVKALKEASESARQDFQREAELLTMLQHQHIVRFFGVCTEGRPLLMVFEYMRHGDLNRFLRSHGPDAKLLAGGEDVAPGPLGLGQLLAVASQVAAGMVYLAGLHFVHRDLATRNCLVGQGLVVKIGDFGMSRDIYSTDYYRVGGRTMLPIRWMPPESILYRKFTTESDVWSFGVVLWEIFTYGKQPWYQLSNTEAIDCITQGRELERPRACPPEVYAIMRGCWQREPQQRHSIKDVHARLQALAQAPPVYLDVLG

Compound | pIC50
COCCN1C[C@@H](NC(=O)Nc2c(C)c(-c3ccc(=O)n(C)c3)nn2-c2ccccc2)[C@H](c2cc(F)c(F)c(F)c2)C1 [Example 604, 1-((3S,4R)-1-(2-methoxyethyl)-4-(3,4,5-trifluorophenyl)pyrrolidin-3-yl)-3-(4-methyl-3-(1-methyl-6-oxo-1,6-dihydropyridin-3-yl)-1-phenyl-1H-pyrazol-5-yl)urea] | > 7.00
COCCN1C[C@@H](NC(=O)Nc2c(C(F)(F)F)c(OC)nn2-c2ccccc2)[C@H](c2ccc(F)c(F)c2)C1 [Example 605, 1-((3S,4R)-4-(3,4-difluorophenyl)-1-(2-methoxyethyl)pyrrolidin-3-yl)-3-(3-methoxy-1-phenyl-4-(trifluoromethyl)-1H-pyrazol-5-yl)urea] | > 7.00
COCCN1C[C@@H](NC(=O)Nc2c(C(F)(F)F)c(OC)nn2-c2ccccc2)[C@H](c2cc(F)cc(F)c2)C1 [Example 606, 1-((3S,4R)-4-(3,5-difluorophenyl)-1-(2-methoxyethyl)pyrrolidin-3-yl)-3-(3-methoxy-1-phenyl-4-(trifluoromethyl)-1H-pyrazol-5-yl)urea] | > 7.00
COCCN1C[C@@H](NC(=O)Nc2c(C(F)(F)F)c(OC)nn2-c2ccccc2)[C@H](c2ccc(F)cc2)C1 [Example 607, 1-((3S,4R)-4-(4-fluorophenyl)-1-(2-methoxyethyl)pyrrolidin-3-yl)-3-(3-methoxy-1-phenyl-4-(trifluoromethyl)-1H-pyrazol-5-yl)urea] | > 7.00
COCCN1C[C@@H](NC(=O)Nc2c(C)c(-c3cn(C)cn3)nn2-c2ccccc2)[C@H](c2ccc(F)c(F)c2)C1 [Example 608, 1-((3S,4R)-4-(3,4-difluorophenyl)-1-(2-methoxyethyl)pyrrolidin-3-yl)-3-(4-methyl-3-(1-methyl-1H-imidazol-4-yl)-1-phenyl-1H-pyrazol-5-yl)urea] | > 7.00
COCCN1C[C@@H](NC(=O)Nc2c(C)c(=O)[nH]n2-c2ccccc2)[C@H](c2cc(F)cc(F)c2)C1 [Example 611, 1-((3S,4R)-4-(3,5-difluorophenyl)-1-(2-methoxyethyl)pyrrolidin-3-yl)-3-(4-methyl-5-oxo-2-phenyl-2,5-dihydro-1H-pyrazol-3-yl)urea] | > 7.00
COCCN1C[C@@H](NC(=O)Nc2c(C)c(=O)[nH]n2-c2ccccc2)[C@H](c2cc(F)c(F)c(F)c2)C1 [Example 612, 1-((3S,4R)-1-(2-methoxyethyl)-4-(3,4,5-trifluorophenyl)pyrrolidin-3-yl)-3-(4-methyl-5-oxo-2-phenyl-2,5-dihydro-1H-pyrazol-3-yl)urea] | > 7.00
COCCN1C[C@@H](NC(=O)Nc2c(C)c(=O)[nH]n2-c2ccccc2)[C@H](c2cccc(F)c2)C1 [Example 613, 1-((3S,4R)-4-(3-fluorophenyl)-1-(2-methoxyethyl)pyrrolidin-3-yl)-3-(4-methyl-5-oxo-2-phenyl-2,5-dihydro-1H-pyrazol-3-yl)urea] | > 7.00
COCCN1C[C@@H](NC(=O)Nc2c(C#N)c(OC)nn2-c2ccccc2)[C@H](c2ccc(F)c(F)c2)C1 [Example 615, 1-(4-cyano-3-methoxy-1-phenyl-1H-pyrazol-5-yl)-3-((3S,4R)-4-(3,4-difluorophenyl)-1-(2-methoxyethyl)pyrrolidin-3-yl)urea] | > 7.00
CCc1nn(-c2ccccc2)c(NC(=O)N[C@@H]2CN(CCOC)C[C@H]2c2ccc(F)c(F)c2)c1C#N [Example 616, 1-(4-cyano-3-ethyl-1-phenyl-1H-pyrazol-5-yl)-3-((3S,4R)-4-(3,4-difluorophenyl)-1-(2-methoxyethyl)pyrrolidin-3-yl)urea.] | > 7.00
COCCN1C[C@@H](NC(=O)Nc2c(C#N)c(C(F)(F)F)nn2-c2ccccc2)[C@H](c2ccc(F)c(F)c2)C1 [Example 617, 1-(4-cyano-1-phenyl-3-(trifluoromethyl)-1H-pyrazol-5-yl)-3-((3S,4R)-4-(3,4-difluorophenyl)-1-(2-methoxyethyl)pyrrolidin-3-yl)urea] | > 7.00
COCCN1C[C@@H](NC(=O)Nc2c(C#N)c(=O)[nH]n2-c2ccccc2)[C@H](c2ccc(F)c(F)c2)C1 [Example 618, 1-(4-cyano-5-oxo-2-phenyl-2,5-dihydro-1H-pyrazol-3-yl)-3-((3S,4R)-4-(3,4-difluorophenyl)-1-(2-methoxyethyl)pyrrolidin-3-yl)urea] | > 7.00
COCCN1C[C@@H](NC(=O)Nc2c(C(N)=O)c(OC)nn2-c2ccccc2)[C@H](c2ccc(F)c(F)c2)C1 [Example 619, 5-(3-((3S,4R)-4-(3,4-difluorophenyl)-1-(2-methoxyethyl)pyrrolidin-3-yl)ureido)-3-methoxy-1-phenyl-1H-pyrazole-4-carboxamide] | > 7.00
COCCN1C[C@@H](NC(=O)Nc2c(C(N)=O)c(C)nn2-c2ccccc2)[C@H](c2ccc(F)c(F)c2)C1 [Example 620, 5-(3-((3S,4R)-4-(3,4-difluoro-phenyl)-1-(2-methoxyethyl)pyrrolidin-3-yl)ureido)-3-methyl-1-phenyl-1H-pyrazole-4-carboxamide] | > 7.00
CCc1nn(-c2ccccc2)c(NC(=O)N[C@@H]2CN(CCOC)C[C@H]2c2ccc(F)c(F)c2)c1C(N)=O [Example 621, 5-(3-((3S,4R)-4-(3,4-difluorophenyl)-1-(2-methoxyethyl)pyrrolidin-3-yl)ureido)-3-ethyl-1-phenyl-1H-pyrazole-4-carboxamide] | > 7.00
COCCN1C[C@@H](NC(=O)Nc2c(C(N)=O)c(C(F)(F)F)nn2-c2ccccc2)[C@H](c2ccc(F)c(F)c2)C1 [Example 622, 5-(3-((3S,4R)-4-(3,4-difluorophenyl)-1-(2-methoxyethyl)pyrrolidin-3-yl)ureido)-1-phenyl-3-(trifluoromethyl)-1H-pyrazole-4-carboxamide] | > 7.00
COCCN1C[C@@H](NC(=O)Nc2c(C(N)=O)c(C)nn2-c2ccccc2)[C@H](c2cc(F)cc(F)c2)C1 [Example 626, 5-(3-((3S,4R)-4-(3,5-difluorophenyl)-1-(2-methoxyethyl)pyrrolidin-3-yl)ureido)-3-methyl-1-phenyl-1H-pyrazole-4-carboxamide] | > 7.00
COCCN1C[C@@H](NC(=O)Nc2c(C(N)=O)cnn2-c2ccccc2)[C@H](c2ccc(F)c(F)c2)C1 [Example 627, 5-(3-((3S,4R)-4-(3,4-difluorophenyl)-1-(2-methoxyethyl)pyrrolidin-3-yl)ureido)-1-phenyl-1H-pyrazole-4-carboxamide] | > 7.00
COCCN1C[C@@H](NC(=O)Nc2c(C(N)=O)c(C(F)F)nn2-c2ccccc2)[C@H](c2ccc(F)c(F)c2)C1 [Example 628, 3-(difluoromethyl)-5-(3-((3S,4R)-4-(3,4-difluorophenyl)-1-(2-methoxyethyl)pyrrolidin-3-yl)ureido)-1-phenyl-1H-pyrazole-4-carboxamide] | > 7.00
COCCN1C[C@@H](NC(=N)Nc2c(Br)c(C)nn2-c2ccccc2)[C@H](c2ccc(F)c(F)c2)C1 [Example 629, 1-(4-bromo-3-methyl-1-phenyl-1H-pyrazol-5-yl)-3-((3S,4R)-4-(3,4-difluorophenyl)-1-(2-methoxyethyl)pyrrolidin-3-yl)guanidine dihydrochloride] | 5.00 to 6.00
COCCN1C[C@@H](NC(=S)Nc2c(Br)c(C)nn2-c2ccccc2)[C@H](c2ccc(F)c(F)c2)C1 [Example 630, 1-(4-bromo-3-methyl-1-phenyl-1H-pyrazol-5-yl)-3-((3S,4R)-4-(3,4-difluorophenyl)-1-(2-methoxyethyl)pyrrolidin-3-yl)thiourea] | > 7.00
